# Data: patent publication US20170122958A1, “Enzymes Functional Probes” (University of Dundee, priority 2013, published 2017)
# Assays:
# Brd2(1) = target: T1, Brd2(1) (Homo sapiens, UniProt P25440); experiment: DSF thermal shift; type: binding; details: wild type
# T1 construct: Plasmids of the eight single BET bromodomain constructs Brd2(1), Brd2(2), Brd3(1), Brd3(2); His6 (N); made in house; host or cells: E. coli BL21(DE3)
# Method: (§1) DSF assays were performed on a LightCycler®480 from Roche or a Mx3005P Real Time PCR machine from Stratagene. […] SYPRO®Orange from Invitrogen Molecular Probes® was used as a reporter dye to monitor the denaturing process of the proteins. Samples were assayed on a 96-well plate with final protein concentrations of 2 μM for the LightCycler®480 and 6 μM for Mx3005P. Compounds were added at a final concentration of 10 μM for the LightCycler®480 and 30 μM for Mx3005P, while the tetra acetylated histone peptide was added to a final concentration of 100 μM and 300 μM respectively. […] The temperature was raised with a step of 0.6° C. per minute from 37° C. to 95° C. with the LightCycler®480 collecting 39 measurements per ° C., and 1° C. per minute from 25° C. to 95° C. with Mx3005P, collecting fluorescence readings at the end of each interval. Each sample was run in triplicates.
# (§2) Collected data was analysed by IGOR Pro 6, a scientific software tool from Wave Metrics, Inc. Analysis was done following the recommendations of Niesen et al.. Fluorescence intensity was plotted as a function of temperature, generating a sigmoidal curve described by a two-state transition from folded to unfolded protein. Curves were fitted by the following sigmoidal equation: […]
# (§3) A1 and A2 are the values of minimum and maximum intensities, respectively, x0 is the inflection point and dx is the rate. Fitted curves were differentiated in IGOR Pro 6 and the maximum of the first derivative was identified using the same program. These values correspond to the inflection points of the transition curves and thus to the melting temperatures of the proteins (Tm).
# Brd2(2) = target: T2, Brd2(2) (Homo sapiens, UniProt P25440); experiment: DSF thermal shift; type: binding; details: wild type
# T2 construct: Plasmids of the eight single BET bromodomain constructs Brd2(1), Brd2(2), Brd3(1), Brd3(2); His6 (N); made in house; host or cells: E. coli BL21(DE3)
# Method: as §1, §2, §3
# Brd2(1)*(Met165-Leu) = target: T3, Brd2(1)*(Met165-Leu) (Homo sapiens, UniProt P25440, M165L); experiment: DSF thermal shift; type: binding; details: mutant
# T3 construct: Plasmids of the eight single BET bromodomain constructs Brd2(1), Brd2(2), Brd3(1), Brd3(2); His6 (N); made in house; host or cells: E. coli BL21(DE3)
# Method: (§4) DSF assays were performed on a LightCycler®480 from Roche or a Mx3005P Real Time PCR machine from Stratagene. Prior to DSF assays, frozen proteins were buffer exchanged using Vivaspin®6 concentrators with a 10 kDa cutoff on a Centrifuge 5430 from Eppendorf at a speed of 6000×g to remove glycerol and to buffer the proteins in 20 mM HEPES pH 7.5 at 25° C. and 100 mM NaCl. SYPRO®Orange from Invitrogen Molecular Probes® was used as a reporter dye to monitor the denaturing process of the proteins. Samples were assayed on a 96-well plate with final protein concentrations of 2 μM for the LightCycler®480 and 6 μM for Mx3005P. Compounds were added at a final concentration of 10 μM for the LightCycler®480 and 30 μM for Mx3005P, while the tetra acetylated histone peptide was added to a final concentration of 100 μM and 300 μM respectively. […] The temperature was raised with a step of 0.6° C. per minute from 37° C. to 95° C. with the LightCycler®480 collecting 39 measurements per ° C., and 1° C. per minute from 25° C. to 95° C. with Mx3005P, collecting fluorescence readings at the end of each interval. Each sample was run in triplicates.
# as §2, §3
# Brd2(2)*(Met438-Ala) = target: T4, Brd2(2)*(Met438-Ala) (Homo sapiens, UniProt P25440, M438A); experiment: DSF thermal shift; type: binding; details: mutant
# T4 construct: Plasmids of the eight single BET bromodomain constructs Brd2(1), Brd2(2), Brd3(1), Brd3(2); His6 (N); made in house; host or cells: E. coli BL21(DE3)
# Method: as §4, §2, §3
# Brd2(2)*(Met438-Leu) = target: T5, Brd2(2)*(Met438-Leu) (Homo sapiens, UniProt P25440, M438L); experiment: DSF thermal shift; type: binding; details: mutant
# T5 construct: Plasmids of the eight single BET bromodomain constructs Brd2(1), Brd2(2), Brd3(1), Brd3(2); His6 (N); made in house; host or cells: E. coli BL21(DE3)
# Method: as §4, §2, §3
# Brd2(1)*(Met165Ala) = Brd2(1)*(Met165Ala) (Homo sapiens, UniProt P25440, M165A); experiment: DSF thermal shift; type: binding; parameters: Plasmids of the eight single BET bromodomain constructs Brd2(1), Brd2(2), Brd3(1), Brd3(2); His6 (N); made in house; host or cells: E. coli BL21(DE3); details: mutant
# Method: as §4, §2, §3
# [1] = system: WT and mutants (Leu to Ala, Leu to Val and Leu to Ile) of Brd2(2); experiment: ITC of compound into protein (FIG. 16); type: binding, human; details: 250 μM compound into 25 μM protein; result in words
# Method: To investigate the utility of the new compounds further, the inventors performed isothermal titration experiments by titrating 250 μM compound solutions (AL, ME-Am1, ET-Am1, ME-Am2, ET-Am2, 9-ME, 9-ET, 9-ME-Am1 and 9-ET-Am1) 25 μM protein solutions (WT and mutants (Leu to Ala, Leu to Val and Leu to Ile) of Brd2(2)).
# ITC experiments were carried out on a ITC200 instrument from MicroCal™ Experiments were conducted at 3 different temperatures 15° C., 25° C. and 30° C., while stirring at 1000 rpm. Buffers of proteins, peptide and compounds were matched to 20 mM HEPES pH 7.5 at 25° C. and 100 mM NaCl. Frozen protein was buffer exchanged as described for the DSF experiments. Each titration comprised 1 initial injection of 0.4 μl lasting 0.8 s, followed by 19 injections of 2 μl lasting 4 s each at 2 min intervals. The initial injection was discarded during data analysis. Standard and reverse titrations were conducted depending on the binding partners.
# All the data was fitted to a single binding site model using the Microcal LLC ITC200 Origin software provided by the manufacturer to yield enthalpies of binding (ΔH) and binding constants (Kas). Further thermodynamic parameters were calculated from these values (changes in entropy ΔS, changes in free energy AG and dissociation constants (Kds)).
# Brd2(1)*(Trp097His) = target: T6, Brd2(1)*(Trp097His) (Homo sapiens, UniProt P25440, W97H); experiment: DSF thermal shift; type: binding; details: mutant
# T6 construct: Plasmids of the eight single BET bromodomain constructs Brd2(1), Brd2(2), Brd3(1), Brd3(2); His6 (N); made in house; host or cells: E. coli BL21(DE3)
# Method: as §1, §2, §3
# Brd2(1)*(Trp097Phe) = target: T7, Brd2(1)*(Trp097Phe) (Homo sapiens, UniProt P25440, W97F); experiment: DSF thermal shift; type: binding; details: mutant
# T7 construct: Plasmids of the eight single BET bromodomain constructs Brd2(1), Brd2(2), Brd3(1), Brd3(2); His6 (N); made in house; host or cells: E. coli BL21(DE3)
# Method: as §1, §2, §3
# Brd2(2)*(Trp370His) = target: T8, Brd2(2)*(Trp370His) (Homo sapiens, UniProt P25440, W370H); experiment: DSF thermal shift; type: binding; details: mutant
# T8 construct: Plasmids of the eight single BET bromodomain constructs Brd2(1), Brd2(2), Brd3(1), Brd3(2); His6 (N); made in house; host or cells: E. coli BL21(DE3)
# Method: as §1, §2, §3
# Brd2(2)*(Trp370Phe) = target: T9, Brd2(2)*(Trp370Phe) (Homo sapiens, UniProt P25440, W370F); experiment: DSF thermal shift; type: binding; details: mutant
# T9 construct: Plasmids of the eight single BET bromodomain constructs Brd2(1), Brd2(2), Brd3(1), Brd3(2); His6 (N); made in house; host or cells: E. coli BL21(DE3)
# Method: as §1, §2, §3
# T2 sequence (P25440 344-453 limits assumed): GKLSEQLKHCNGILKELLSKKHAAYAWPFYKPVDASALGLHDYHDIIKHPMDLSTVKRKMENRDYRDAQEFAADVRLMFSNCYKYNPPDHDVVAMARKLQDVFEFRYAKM
# T5 sequence (P25440 344-453 M438L limits assumed): as the sequence (P25440 344-453 limits assumed) above, with M95L counted along it
# T4 sequence (P25440 344-453 M438A limits assumed): as the sequence (P25440 344-453 limits assumed) above, with M95A counted along it
# Brd2(1)*(Met165Ala), sequence (P25440 74-180 M165A limits assumed): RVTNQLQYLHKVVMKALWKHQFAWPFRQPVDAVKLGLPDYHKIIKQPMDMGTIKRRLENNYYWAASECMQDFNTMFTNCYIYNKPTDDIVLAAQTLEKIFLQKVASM
# T1 sequence (P25440 74-180 limits assumed): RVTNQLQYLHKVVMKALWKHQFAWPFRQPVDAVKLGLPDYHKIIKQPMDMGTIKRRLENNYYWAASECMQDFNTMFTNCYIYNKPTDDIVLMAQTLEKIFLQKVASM
# T6 sequence (P25440 74-180 W97H limits assumed): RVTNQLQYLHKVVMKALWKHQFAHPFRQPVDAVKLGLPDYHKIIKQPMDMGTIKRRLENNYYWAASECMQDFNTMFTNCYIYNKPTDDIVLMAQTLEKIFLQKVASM
# T3 sequence (P25440 74-180 M165L limits assumed): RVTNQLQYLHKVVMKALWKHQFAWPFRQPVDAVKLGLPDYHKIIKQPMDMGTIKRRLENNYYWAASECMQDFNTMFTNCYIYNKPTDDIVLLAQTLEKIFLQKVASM
# T8 sequence (P25440 344-453 W370H limits assumed): as the sequence (P25440 344-453 limits assumed) above, with W27H counted along it
# T7 sequence (P25440 74-180 W97F limits assumed): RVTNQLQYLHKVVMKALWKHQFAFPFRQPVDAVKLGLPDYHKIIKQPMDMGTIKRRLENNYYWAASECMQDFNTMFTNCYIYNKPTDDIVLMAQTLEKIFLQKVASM
# T9 sequence (P25440 344-453 W370F limits assumed): as the sequence (P25440 344-453 limits assumed) above, with W27F counted along it
Compound,ΔTm Brd2(1) (Brd2(1)),ΔTm Brd2(2) (Brd2(2)),ΔTm Brd2(1)*(Met165-Leu) (Brd2(1)*(Met165-Leu)),ΔTm Brd2(2)*(Met165-Ala) (Brd2(2)*(Met438-Ala)),ΔTm Brd2(2)*(Met165-Leu) (Brd2(2)*(Met438-Leu)),ΔTm Brd2(1)*(Met165-Ala) (Brd2(1)*(Met165Ala)),Selectivity for Brd2(2) mutants relative to wild type by ITC (FIG. 16) [1],also measured
"Cc1cc(C)cc(S(=O)(=O)Nc2ccc3c(c2)CN(C)C(=O)N3)c1 [Compound 49, 3,5-dimethyl-N-(3-methyl-2-oxo-1,2,3,4-tetrahydroquinazolin-6-yl)benzenesulfonamide]",2.6 ± 0.5 K,2.8 ± 0.2 K,4.1 ± 0.6 K,2.5 ± 0.2 K,4.9 ± 0.3 K,1.1 ± 0.5 K,,
"CCN(CC)C(=O)[C@H](C)[C@@H]1N=C(c2ccc(Cl)cc2)c2cc(OC)ccc2-n2c(C)nnc21 (racemic) [ME-Am2, (+−) (R)-2-((S)-6-(4-chlorophenyl)-8-methoxy-1-methyl-4H-benzo[f][1,2,4]triazolo[4,3-a][1,4]diazepin-4-yl)-N,N-diethylpropanamide]",,,,,,,higher selectivity for the mutants relative to wild types,
"COc1cc(C)ccc1S(=O)(=O)Nc1ccc2c(c1)CN(C)C(=O)N2 [Compound 52, 2-methoxy-4-methyl-N-(3-methyl-2-oxo-1,2,3,4-tetrahydroquinazolin-6-yl)benzenesulfonamide]",4.7 ± 0.2 K,2.8 ± 0.2 K,3.1 ± 0.2 K,2.0 ± 0.2 K,2.4 ± 0.1 K,1.2 ± 0.2 K,,
"COc1ccc(S(=O)(=O)Nc2ccc3c(c2)CN(C)C(=O)N3)cc1 [Compound 47, 4-methoxy-N-(3-methyl-2-oxo-1,2,3,4-tetrahydroquinazolin-6-yl)benzenesulfonamide]",2.4 ± 0.1 K,3.1 ± 0.4 K,0.1 ± 0.3 K,1.6 ± 0.3 K,1.3 ± 0.2 K,0.0 ± 0.3 K,,
"C=CC[C@@H](C(=O)OC)[C@@H]1N=C(c2ccc(Cl)cc2)c2cc(OC)ccc2-n2c(C)nnc21 (racemic) [AL, (+−)methyl (R)-2-((S)-6-(4-chlorophenyl)-8-methoxy-1-methyl-4H-benzo[f][1,2,4]triazolo[4,3-a][1,4]diazepin-4-yl)pent-4-enoate]",,,,,,,higher selectivity for the mutants relative to wild types,
"CC[C@@H](C(=O)OC)[C@@H]1N=C(c2ccc(Cl)cc2)c2ccc(OC)cc2-n2c(C)nnc21 (racemic) [Compound 9-ET, (+−) methyl (R)-2-((S)-6-(4-chlorophenyl)-9-methoxy-1-methyl-4H-benzo[f][1,2,4]triazolo[4,3-a][1,4]diazepin-4-yl)butanoate]",,,,,,,higher selectivity for the mutants relative to wild types,
"CN1Cc2cc(NS(=O)(=O)c3ccc(-c4ccccc4)cc3)ccc2NC1=O [Compound 48, N-(3-methyl-2-oxo-1,2,3,4-tetrahydroquinazolin-6-yl)-[1,1′-biphenyl]-4-sulfonamide]",0.5 ± 0.2 K,0.0 ± 0.2 K,0.0 ± 0.1 K,0.0 ± 0.1 K,0.0 ± 0.1 K,1.5 ± 0.4 K,,
"CCNC(=O)[C@H](C)[C@@H]1N=C(c2ccc(Cl)cc2)c2ccc(OC)cc2-n2c(C)nnc21 (racemic) [Compound 9-ME-Am1, (+−) (R)-2-((S)-6-(4-chlorophenyl)-9-methoxy-1-methyl-4H-benzo[f][1,2,4]triazolo[4,3-a][1,4]diazepin-4-yl)-N-ethylpropanamide]",,,,,,,higher selectivity for the mutants relative to wild types,
"COc1ccccc1S(=O)(=O)Nc1ccc2c(c1)CN(C)C(=O)N2 [PFI-1, reference compound]",4.5 ± 0.3 K,4.5 ± 0.2 K,1.3 ± 0.3 K,1.7 ± 0.1 K,2.1 ± 0.3 K,1.6 ± 0.1 K,,ΔTm Brd2(1)*(Tryp097-His) (Brd2(1)*(Trp097His)): 1.9 ± 0.5 K; ΔTm Brd2(1)*(Tryp097-Phe) (Brd2(1)*(Trp097Phe)): 2.6 ± 0.4 K; ΔTm Brd2(2)*(Tryp370-His) (Brd2(2)*(Trp370His)): 1.8 ± 0.0 K; ΔTm Brd2(2)*(Tryp370-Phe) (Brd2(2)*(Trp370Phe)): 2.9 ± 0.3 K
"CN1Cc2cc(NS(=O)(=O)c3ccc(C(C)(C)C)cc3)ccc2NC1=O [Compound 46, 4-(tert-butyl)-N-(3-methyl-2-oxo-1,2,3,4-tetrahydroquinazolin-6-yl)benzenesulfonamide]",1.1 ± 0.2 K,0.8 ± 0.1 K,0.1 ± 0.1 K,2.5 ± 0.2 K,0.3 ± 0.2 K,5.1 ± 0.2 K,,
"COc1ccc(S(=O)(=O)Nc2ccc3c(c2)CN(C)C(=O)N3)c(OC)c1 [Compound 54, 2,4-dimethoxy-N-(3-methyl-2-oxo-1,2,3,4-tetrahydroquinazolin-6-yl)benzenesulfonamide]",2.4 ± 0.2 K,1.6 ± 0.2 K,2.7 ± 0.3 K,2.3 ± 0.1 K,2.4 ± 0.4 K,1.5 ± 0.2 K,,
"COC(=O)CC1N=C(c2ccc(Cl)cc2C)c2cc(OC)ccc2-n2c(C)nnc21 (racemic) [Compound 8, (+−)-methyl 2-(6-(4-chloro-2-methylphenyl)-8-methoxy-1-methyl-4H-benzo[f][1,2,4]triazolo[4,3-a][1,4]diazepin-4-yl)acetate]",6.3 ± 0.1 K,6.6 ± 0.2 K,,,,,,Thermal stabilisation brd2(1) (Brd2(1)): 6.3 ± 0.1 °C; Thermal stabilisation brd2(1)W097H (Brd2(1)*(Trp097His)): 0.9 ± 0.3 °C; ΔTm Brd2(1)*(Tryp097-His) (Brd2(1)*(Trp097His)): 0.9 ± 0.3 K; Thermal stabilisation brd2(1)W097F (Brd2(1)*(Trp097Phe)): 1.4 ± 0.2 °C; ΔTm Brd2(1)*(Tryp097-Phe) (Brd2(1)*(Trp097Phe)): 1.4 ± 0.2 K; Thermal stabilisation brd2(2) (Brd2(2)): 6.6 ± 0.2 °C; Thermal stabilisation brd2(2)W370H (Brd2(2)*(Trp370His)): 1.1 ± 0.2 °C; ΔTm Brd2(2)*(Tryp370-His) (Brd2(2)*(Trp370His)): 1.1 ± 0.2 K; Thermal stabilisation brd2(2)W370F (Brd2(2)*(Trp370Phe)): 2.8 ± 0.1 °C; ΔTm Brd2(2)*(Tryp370-Phe) (Brd2(2)*(Trp370Phe)): 2.8 ± 0.1 K
